The data set is described as follows: Pharmacokinetic study in rats: plasma 2C-B after IV/PO 2C-B or PO 2C-B prodrugs.
The mark [1] stands for this setting: oral dosing of 2C-B prodrug, rat, time 0.500 h, individual animal.
[2] abbreviates: oral dosing of 2C-B prodrug, rat, time 0.500 h, mean.
The mark [3] stands for this setting: oral dosing of 2C-B prodrug, rat, time 1.00 h, individual animal.
[4] abbreviates: oral dosing of 2C-B prodrug, rat, time 1.00 h, mean.
Where [5] appears, read: oral dosing of 2C-B prodrug, rat, time 2.00 h, individual animal.
Setting [6] is: oral dosing of 2C-B prodrug, rat, time 2.00 h, mean.
Setting [7] is: oral dosing of 2C-B prodrug, rat, time 4.00 h, individual animal.
Where [8] appears, read: oral dosing of 2C-B prodrug, rat, time 4.00 h, mean.
[9] abbreviates: oral dosing of 2C-B prodrug, rat, time 7.00 h, individual animal.
[10] abbreviates: oral dosing of 2C-B prodrug, rat, time 7.00 h, mean.
[11] abbreviates: oral dosing of 2C-B prodrug, rat, time 24.0 h, individual animal.
[12] abbreviates: oral dosing of 2C-B prodrug, rat, time 24.0 h, mean.
Setting [13] is: prodrug oral 10 mg/kg, male SD rats, time 0.500 h, individual animals.
Setting [14] is: prodrug oral 10 mg/kg, male SD rats, time 0.500 h, mean.
The mark [15] stands for this setting: prodrug oral 10 mg/kg, male SD rats, time 1.00 h, individual animals.
Where [16] appears, read: prodrug oral 10 mg/kg, male SD rats, time 1.00 h, mean.
[17] abbreviates: prodrug oral 10 mg/kg, male SD rats, time 2.00 h, individual animals.
Setting [18] is: prodrug oral 10 mg/kg, male SD rats, time 2.00 h, mean.
Where [19] appears, read: prodrug oral 10 mg/kg, male SD rats, time 4.00 h, individual animals.
Where [20] appears, read: prodrug oral 10 mg/kg, male SD rats, time 4.00 h, mean.
Where [21] appears, read: prodrug oral 10 mg/kg, male SD rats, time 7.00 h, individual animals.
The mark [22] stands for this setting: prodrug oral 10 mg/kg, male SD rats, time 7.00 h, mean.
Setting [23] is: prodrug oral 10 mg/kg, male SD rats, time 24.0 h, individual animals.
Setting [24] is: prodrug oral 10 mg/kg, male SD rats, time 24.0 h, mean.

Regarding `COc1cc(CCNC(=O)CN(C)C(=O)[C@H](Cc2ccccc2)NC(=O)OC(C)(C)C)c(OC)cc1Br` [Example 10, tert-butyl (S)-(1-((2-((4-bromo-2,5-dimethoxyphenethyl)amino)-2-oxoethyl)(methyl)amino)-1-oxo-3-phenylpropan-2-yl)carbamate], the “Plasma Concentrations of metabolite 2C-B Following Oral Dosing” value (“Plasma Concentrations” below) under setting [1] was “BLQ (BLQ: Below Lower Limit of Quanification (0.5 ng/mL))”; the “Plasma Concentrations” value under setting [2] is “BLQ (BLQ: Below Lower Limit of Quanification (0.5 ng/mL))”; the “Plasma Concentrations” value under setting [3] was “BLQ (BLQ: Below Lower Limit of Quanification (0.5 ng/mL))”; the “Plasma Concentrations” value under setting [4] is on record as “BLQ (BLQ: Below Lower Limit of Quanification (0.5 ng/mL))”; the “Plasma Concentrations” value under setting [5] was “BLQ (BLQ: Below Lower Limit of Quanification (0.5 ng/mL))”; the “Plasma Concentrations” value under setting [6] is “BLQ (BLQ: Below Lower Limit of Quanification (0.5 ng/mL))”. Moreover, the “Plasma Concentrations” value reads like this: under setting [7], “BLQ (BLQ: Below Lower Limit of Quanification (0.5 ng/mL))”; under setting [8], “BLQ (BLQ: Below Lower Limit of Quanification (0.5 ng/mL))”; under setting [9], “BLQ (BLQ: Below Lower Limit of Quanification (0.5 ng/mL))”; under setting [10], “BLQ (BLQ: Below Lower Limit of Quanification (0.5 ng/mL))”; under setting [11], “BLQ (BLQ: Below Lower Limit of Quanification (0.5 ng/mL))”; under setting [12], “BLQ (BLQ: Below Lower Limit of Quanification (0.5 ng/mL))”.

Take `COc1cc(CCN(C(=O)OC(C)(C)C)C(=O)OC(C)(C)C)c(OC)cc1Br` [Example 12, tert-butyl (4-bromo-2,5-dimethoxyphenethyl)(tert-butoxycarbonyl) carbamate]: the “Plasma Concentrations” value reads like this: under setting [13], “BLQ (BLQ: Below Lower Limit of Quanification (0.5 ng/mL))”; under setting [14], “BLQ (BLQ: Below Lower Limit of Quanification (0.5 ng/mL))”; under setting [15], “BLQ (BLQ: Below Lower Limit of Quanification (0.5 ng/mL))”; under setting [16], “BLQ (BLQ: Below Lower Limit of Quanification (0.5 ng/mL))”; under setting [17], “BLQ (BLQ: Below Lower Limit of Quanification (0.5 ng/mL))”; under setting [18], “BLQ (BLQ: Below Lower Limit of Quanification (0.5 ng/mL))”. Besides, the “Plasma Concentrations” value reads like this: under setting [19], “BLQ (BLQ: Below Lower Limit of Quanification (0.5 ng/mL))”; under setting [20], “BLQ (BLQ: Below Lower Limit of Quanification (0.5 ng/mL))”; under setting [21], “BLQ (BLQ: Below Lower Limit of Quanification (0.5 ng/mL))”; under setting [22], “BLQ (BLQ: Below Lower Limit of Quanification (0.5 ng/mL))”; under setting [23], “BLQ (BLQ: Below Lower Limit of Quanification (0.5 ng/mL))”; under setting [24], “BLQ (BLQ: Below Lower Limit of Quanification (0.5 ng/mL))”.

`COc1cc(CCN2C(=O)C(C)=C(C)C2=O)c(OC)cc1Br` [Example 21-B, 1-(4-bromo-2,5-dimethoxyphenethyl)-3,4-dim ethyl-1H-pyrrole-2,5-dione]: the “Plasma Concentrations” value is given as “BLQ (BLQ: Below Lower Limit of Quanification (0.5 ng/mL))” under setting [13]; “BLQ (BLQ: Below Lower Limit of Quanification (0.5 ng/mL))” under setting [14]; “BLQ (BLQ: Below Lower Limit of Quanification (0.5 ng/mL))” under setting [15]; “BLQ (BLQ: Below Lower Limit of Quanification (0.5 ng/mL))” under setting [16]; “BLQ (BLQ: Below Lower Limit of Quanification (0.5 ng/mL))” under setting [17]; “BLQ (BLQ: Below Lower Limit of Quanification (0.5 ng/mL))” under setting [18]. Moreover, the “Plasma Concentrations” value by setting is: under setting [19], “BLQ (BLQ: Below Lower Limit of Quanification (0.5 ng/mL))”; under setting [20], “BLQ (BLQ: Below Lower Limit of Quanification (0.5 ng/mL))”; under setting [21], “BLQ (BLQ: Below Lower Limit of Quanification (0.5 ng/mL))”; under setting [22], “BLQ (BLQ: Below Lower Limit of Quanification (0.5 ng/mL))”; under setting [23], “BLQ (BLQ: Below Lower Limit of Quanification (0.5 ng/mL))”; under setting [24], “BLQ (BLQ: Below Lower Limit of Quanification (0.5 ng/mL))”.

As to `COc1cc(CCN2C(=O)c3c(C)ccc(C)c3C2=O)c(OC)cc1Br` [Example 34, 2-(4-bromo-2,5-dimethoxyphenethyl)-4,7-dimethylisoindoline-1,3-dione], the “Plasma Concentrations” value runs as follows: under setting [1], “BLQ (BLQ: Below Lower Limit of Quanification (0.5 ng/mL))”; under setting [2], “BLQ (BLQ: Below Lower Limit of Quanification (0.5 ng/mL))”; under setting [3], “BLQ (BLQ: Below Lower Limit of Quanification (0.5 ng/mL))”; under setting [4], “BLQ (BLQ: Below Lower Limit of Quanification (0.5 ng/mL))”; under setting [5], “BLQ (BLQ: Below Lower Limit of Quanification (0.5 ng/mL))”; under setting [6], “BLQ (BLQ: Below Lower Limit of Quanification (0.5 ng/mL))”. The “Plasma Concentrations” value is reported as “BLQ (BLQ: Below Lower Limit of Quanification (0.5 ng/mL))” under setting [7]; “BLQ (BLQ: Below Lower Limit of Quanification (0.5 ng/mL))” under setting [8]; “BLQ (BLQ: Below Lower Limit of Quanification (0.5 ng/mL))” under setting [9]; “BLQ (BLQ: Below Lower Limit of Quanification (0.5 ng/mL))” under setting [10]; “BLQ (BLQ: Below Lower Limit of Quanification (0.5 ng/mL))” under setting [11]; “BLQ (BLQ: Below Lower Limit of Quanification (0.5 ng/mL))” under setting [12].

With `CCOC(=O)C1=C(C(=O)NCCc2cc(OC)c(Br)cc2OC)CCC1` [Example 36, Ethyl 2-((4-bromo-2,5-dimethoxyphenethyl)carbamoyl)cyclopent-1-ene-1-carboxylate], the “Plasma Concentrations” value is given as “BLQ (BLQ: Below Lower Limit of Quanification (0.5 ng/mL))” under setting [1]; “BLQ (BLQ: Below Lower Limit of Quanification (0.5 ng/mL))” under setting [2]; “BLQ (BLQ: Below Lower Limit of Quanification (0.5 ng/mL))” under setting [3]; “BLQ (BLQ: Below Lower Limit of Quanification (0.5 ng/mL))” under setting [4]; “BLQ (BLQ: Below Lower Limit of Quanification (0.5 ng/mL))” under setting [5]; “BLQ (BLQ: Below Lower Limit of Quanification (0.5 ng/mL))” under setting [6]. Besides, the “Plasma Concentrations” value is, setting by setting: under setting [7], “BLQ (BLQ: Below Lower Limit of Quanification (0.5 ng/mL))”; under setting [8], “BLQ (BLQ: Below Lower Limit of Quanification (0.5 ng/mL))”; under setting [9], “BLQ (BLQ: Below Lower Limit of Quanification (0.5 ng/mL))”; under setting [10], “BLQ (BLQ: Below Lower Limit of Quanification (0.5 ng/mL))”; under setting [11], “BLQ (BLQ: Below Lower Limit of Quanification (0.5 ng/mL))”; under setting [12], “BLQ (BLQ: Below Lower Limit of Quanification (0.5 ng/mL))”.

(Values after patent US20250049748A1, “ANALOGS OF 4-BROMO-2,5-DIMETHOXYPHENETHYLAMINE” (Terran Biosciences Inc., priority 2021, published 2025).)
